Results reported in ChEMBL document CHEMBL1201862, “PubChem BioAssay data set” (2004).
Active and inactive are the calls of the source.

Legend:
[1] = biological target: Lytic switch protein BZLF1 (Epstein-Barr virus (strain B95-8) (HHV-4) (Human herpesvirus 4), UniProt P03206); experiment: EBV ZTA inhibitors, dose response, counter-screen for EBNA-1 inhibitor project, biochemical, fluorescence polarization, Epstein-Barr virus, 1536-well (AID 2377); parameters: species or system human gammaherpesvirus 4;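 also: fluorescence polarization of Cy5-labelled ZRE DNA probe bound by purified Zta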
Chain of Lytic switch protein BZLF1 (P03206 whole entry): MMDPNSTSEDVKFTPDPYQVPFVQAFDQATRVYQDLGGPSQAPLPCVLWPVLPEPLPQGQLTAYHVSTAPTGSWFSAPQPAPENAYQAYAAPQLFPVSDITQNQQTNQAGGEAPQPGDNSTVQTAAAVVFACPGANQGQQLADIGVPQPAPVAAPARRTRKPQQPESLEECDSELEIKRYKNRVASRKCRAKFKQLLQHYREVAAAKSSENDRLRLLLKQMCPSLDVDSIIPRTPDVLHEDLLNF

[2] = biological target: Epstein-Barr nuclear antigen 1 (Epstein-Barr virus (strain B95-8) (HHV-4) (Human herpesvirus 4), UniProt P03211); experiment: EBNA-1 inhibitors, dose response, biochemical, fluorescence polarization, 1536-well (AID 2381); parameters: species or system human gammaherpesvirus 4;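 also: fluorescence polarization of a Cy5 DNA probe bound by EBNA-1 protein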
Chain of Epstein-Barr nuclear antigen 1 (P03211 whole entry): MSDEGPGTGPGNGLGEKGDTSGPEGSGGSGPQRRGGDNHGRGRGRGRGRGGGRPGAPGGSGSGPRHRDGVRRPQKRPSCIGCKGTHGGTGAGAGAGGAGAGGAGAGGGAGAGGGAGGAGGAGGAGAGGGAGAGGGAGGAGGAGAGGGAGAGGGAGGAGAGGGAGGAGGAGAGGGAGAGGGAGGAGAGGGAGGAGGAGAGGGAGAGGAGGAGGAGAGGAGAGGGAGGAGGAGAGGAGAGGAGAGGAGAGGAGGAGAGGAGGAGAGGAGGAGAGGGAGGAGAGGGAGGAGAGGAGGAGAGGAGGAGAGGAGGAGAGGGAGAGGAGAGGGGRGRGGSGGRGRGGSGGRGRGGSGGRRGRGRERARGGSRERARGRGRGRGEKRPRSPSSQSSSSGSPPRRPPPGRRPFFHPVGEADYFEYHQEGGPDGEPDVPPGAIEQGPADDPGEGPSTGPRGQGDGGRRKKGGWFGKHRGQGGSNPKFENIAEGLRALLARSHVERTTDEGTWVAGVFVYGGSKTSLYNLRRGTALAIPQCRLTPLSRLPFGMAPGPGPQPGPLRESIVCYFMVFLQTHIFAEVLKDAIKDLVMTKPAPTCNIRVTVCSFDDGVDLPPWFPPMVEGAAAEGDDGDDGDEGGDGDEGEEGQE

HT-1080 = experiment: cytotoxicity in HT1080 fibrosarcoma cells, cell-based, fluorescence readout (AID 620); assay type: functional; settings: Homo sapiens
[3] = biological target: Luciferin 4-monooxygenase (Photinus pyralis, UniProt P08659); experiment: Counter Screen for Luciferase-based Assay Positives. [Related pubchem assays: 620, 618, 411 ]
Chain of Luciferin 4-monooxygenase (P08659 whole entry): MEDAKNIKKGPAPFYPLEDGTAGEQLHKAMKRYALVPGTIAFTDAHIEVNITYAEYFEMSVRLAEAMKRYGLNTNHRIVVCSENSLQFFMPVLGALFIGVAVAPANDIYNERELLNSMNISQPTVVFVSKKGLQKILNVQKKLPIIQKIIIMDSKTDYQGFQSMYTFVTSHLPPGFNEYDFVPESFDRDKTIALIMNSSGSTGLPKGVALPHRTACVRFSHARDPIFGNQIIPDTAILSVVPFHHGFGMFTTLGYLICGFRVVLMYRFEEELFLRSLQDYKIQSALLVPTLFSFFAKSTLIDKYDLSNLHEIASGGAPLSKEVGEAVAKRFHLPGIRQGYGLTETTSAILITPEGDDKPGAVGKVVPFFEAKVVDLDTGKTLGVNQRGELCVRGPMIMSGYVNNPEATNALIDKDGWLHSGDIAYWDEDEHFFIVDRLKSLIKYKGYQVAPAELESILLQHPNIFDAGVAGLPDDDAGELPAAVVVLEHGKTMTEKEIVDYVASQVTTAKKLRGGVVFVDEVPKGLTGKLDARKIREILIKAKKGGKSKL

Estrogen receptor beta [4] = biological target: T1, Estrogen receptor beta (Homo sapiens, UniProt Q92731); experiment: ERβ–SRC-3 coactivator interaction inhibitors, confirmation, orthogonal assay, biochemical, ELISA, streptavidin-HRP readout (AID 1060)
T1 sequence (Q92731 whole entry, the tested form may be a part): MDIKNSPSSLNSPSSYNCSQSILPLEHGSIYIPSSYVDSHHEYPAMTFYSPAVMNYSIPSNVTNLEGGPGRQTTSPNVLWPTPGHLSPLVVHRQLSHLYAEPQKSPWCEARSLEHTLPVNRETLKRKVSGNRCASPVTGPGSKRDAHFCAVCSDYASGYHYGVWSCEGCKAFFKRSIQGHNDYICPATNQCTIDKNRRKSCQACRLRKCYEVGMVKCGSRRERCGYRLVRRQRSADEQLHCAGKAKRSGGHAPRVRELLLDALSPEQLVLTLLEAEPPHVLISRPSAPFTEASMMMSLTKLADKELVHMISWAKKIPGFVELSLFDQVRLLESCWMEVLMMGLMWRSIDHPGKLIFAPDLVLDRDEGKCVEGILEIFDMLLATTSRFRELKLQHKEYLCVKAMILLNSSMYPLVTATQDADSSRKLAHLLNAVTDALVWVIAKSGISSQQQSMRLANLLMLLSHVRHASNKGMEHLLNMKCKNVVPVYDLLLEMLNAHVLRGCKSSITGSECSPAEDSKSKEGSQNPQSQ

[5] = biological target: T2, Carboxy-terminal domain RNA polymerase II polypeptide A small phosphatase 1 (Homo sapiens, UniProt Q9GZU7); experiment: inhibitors of CTDSP1, concentration-response testing, biochemical assay, absorbance-based, actives from ultra-high-throughput screening (AID 540297); assay type: functional
T2 sequence (Q9GZU7 whole entry): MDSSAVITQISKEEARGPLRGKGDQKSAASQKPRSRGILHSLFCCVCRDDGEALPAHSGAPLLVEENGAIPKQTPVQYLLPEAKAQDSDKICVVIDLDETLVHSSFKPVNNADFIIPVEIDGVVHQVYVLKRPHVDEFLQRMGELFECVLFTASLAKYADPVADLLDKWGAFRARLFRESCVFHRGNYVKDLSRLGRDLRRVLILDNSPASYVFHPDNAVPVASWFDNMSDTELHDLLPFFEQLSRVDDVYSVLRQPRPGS

Estrogen receptor beta [6] = biological target: T1, Estrogen receptor beta
SUMO-activating enzyme [7] = biological target: T3, SUMO-activating enzyme (Homo sapiens, UniProt Q9UBT2); experiment: inhibitors of in vitro SUMOylation cascade, primary screen, biochemical, HTRF, uHTS (AID 2006); assay type: protein-complex assay
T3 sequence (Q9UBE0 whole entry): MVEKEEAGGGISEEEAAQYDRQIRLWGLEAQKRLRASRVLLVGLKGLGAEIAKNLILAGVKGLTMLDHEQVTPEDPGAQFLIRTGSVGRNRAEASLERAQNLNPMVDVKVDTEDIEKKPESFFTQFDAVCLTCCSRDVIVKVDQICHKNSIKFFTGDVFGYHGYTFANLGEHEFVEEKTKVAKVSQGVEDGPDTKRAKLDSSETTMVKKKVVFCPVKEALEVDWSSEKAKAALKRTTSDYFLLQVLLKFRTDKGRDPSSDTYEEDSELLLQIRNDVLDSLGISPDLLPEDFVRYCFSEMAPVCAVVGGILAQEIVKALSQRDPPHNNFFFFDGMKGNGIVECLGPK
T3 sequence (Q9UBT2 whole entry): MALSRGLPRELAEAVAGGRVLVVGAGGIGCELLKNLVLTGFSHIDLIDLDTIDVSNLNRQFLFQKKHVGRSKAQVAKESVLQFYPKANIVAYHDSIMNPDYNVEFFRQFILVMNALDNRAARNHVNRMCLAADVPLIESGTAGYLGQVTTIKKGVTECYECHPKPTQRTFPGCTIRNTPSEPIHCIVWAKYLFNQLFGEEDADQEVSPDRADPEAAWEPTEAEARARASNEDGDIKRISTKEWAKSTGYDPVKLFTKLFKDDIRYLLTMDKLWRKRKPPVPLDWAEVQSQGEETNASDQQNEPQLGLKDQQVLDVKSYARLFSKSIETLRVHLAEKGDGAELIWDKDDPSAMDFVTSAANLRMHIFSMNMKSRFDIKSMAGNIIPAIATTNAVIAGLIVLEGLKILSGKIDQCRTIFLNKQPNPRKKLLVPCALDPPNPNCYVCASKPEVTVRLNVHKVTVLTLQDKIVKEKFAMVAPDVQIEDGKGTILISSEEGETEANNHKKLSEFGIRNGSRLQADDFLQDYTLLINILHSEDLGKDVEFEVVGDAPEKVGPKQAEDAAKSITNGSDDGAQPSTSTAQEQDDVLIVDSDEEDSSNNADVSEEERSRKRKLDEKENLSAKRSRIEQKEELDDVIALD

Bcl-2-like protein 1 = Bcl-2-like protein 1 (Homo sapiens, UniProt Q07817); experiment: BCL-XL inhibitors, dose response, selectivity assay for MCL1 inhibitor project, biochemical, fluorescence polarization, 1536-well (AID 2218)
Chain of Bcl-2-like protein 1 (Q07817 whole entry): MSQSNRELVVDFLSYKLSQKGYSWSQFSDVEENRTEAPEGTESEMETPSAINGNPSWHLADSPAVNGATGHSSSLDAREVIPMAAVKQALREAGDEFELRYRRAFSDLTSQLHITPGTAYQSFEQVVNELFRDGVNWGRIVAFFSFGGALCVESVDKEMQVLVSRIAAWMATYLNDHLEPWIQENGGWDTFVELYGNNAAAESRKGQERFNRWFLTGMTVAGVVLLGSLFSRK

[8] = biological target: Induced myeloid leukemia cell differentiation protein Mcl-1 (Homo sapiens, UniProt Q07820); experiment: MCL1-BIM BH3 interaction inhibitors, dose response, biochemical, fluorescence polarization, BIM-BH3 peptide, 1536-well (AID 2217)
Chain of Induced myeloid leukemia cell differentiation protein Mcl-1 (Q07820 whole entry): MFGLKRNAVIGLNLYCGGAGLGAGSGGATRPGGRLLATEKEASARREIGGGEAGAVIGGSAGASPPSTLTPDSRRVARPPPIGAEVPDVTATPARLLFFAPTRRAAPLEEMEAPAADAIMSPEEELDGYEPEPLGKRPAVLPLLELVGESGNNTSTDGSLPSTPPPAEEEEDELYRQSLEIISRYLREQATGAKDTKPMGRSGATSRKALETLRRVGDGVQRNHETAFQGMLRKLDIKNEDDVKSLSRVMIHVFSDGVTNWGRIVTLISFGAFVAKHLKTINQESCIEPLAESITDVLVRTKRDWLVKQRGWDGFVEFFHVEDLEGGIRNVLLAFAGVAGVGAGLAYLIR

SUMO-activating enzyme [9] = biological target: T3, SUMO-activating enzyme; experiment: SUMOylation inhibitor hit validation, confirmation, SUMOylation inhibitor project, biochemical, AlphaScreen (AID 2018); assay type: functional

## Cc1ccc(C(=O)Nc2nc3ccc(S(C)(=O)=O)cc3s2)cc1C
[1]
  IC50: > 111 µM (not active)
[2]
  IC50: 4.48 µM (active)

## Clc1ccccc1OCc1nc(-c2ccccn2)no1
HT-1080
  EC50: > 50 µM (not active)
[3]
  EC50: > 100 µM (not active)

## CCOC(=O)C1CCCN(C(=O)c2ccc(CS(=O)(=O)c3ccc(C)cc3)o2)C1 (stereo not drawn)
Estrogen receptor beta [4]
  IC50: < 0.023 µM (not active)
[5]
  IC50: 7.41 µM (active)
Estrogen receptor beta [6]
  IC50: 13.7 µM (active)

## Cc1ccc(C(=O)O)cc1-c1ccc(/C=C2\SC(=O)N(CC(=O)Nc3ccc4c(c3)OCO4)C2=O)o1
SUMO-activating enzyme [7]
  IC50: 10.3 µM (active)
Bcl-2-like protein 1
  IC50: > 109 µM (not active)
[8]
  IC50: > 4.03 µM (active)
SUMO-activating enzyme [9]
  IC50: 4.35 µM (active)

## Cc1cc(NC(=O)COC(=O)c2oc3c(ccc4ccccc43)c2C)no1
[1]
  IC50: > 111 µM (not active)
[2]
  IC50: 9.17 µM (active)
